In the assay the test system is production and secretion of NGF in mouse L-M cells. In words: Promoting activity for the production and secretion of NGF in mouse L-M cells (ELISA of medium after 24 h). The assay is classed as cell-based. Conditions: for fold induction at 200 µM: Mus musculus, 24 h, read-out: NGF Increase Ratio; for NGF Concentration: 24 hours, mean of four determinations. As for the experimental part:
Promoting activity for the production and secretion of NGF in mouse L-M cells
The medium was cultured for 3 days at a temperature of 37° C. […] The sample of the derivative tested is contained in the medium at a prescribed concentration as illustrated in the Tables. […] Data are expressed as fold increase in NGF content of the medium over that cultivated in the absence of the derivative to be tested. […] Data are presented as the mean of four determinations. The results are illustrated in Tables 1-5.
In general terms: In an ELISA, binding on a coated surface is turned into a signal by an enzyme label.

[1] abbreviates: Table 1, L-M cells, sample concentration 0.2 mM, control 0.33.
The mark [2] stands for this setting: Table 1, L-M cells, sample concentration 0.2 mM, fold increase over control (1.00).
The mark [3] stands for this setting: Table 2, L-M cells, sample concentration 0.2 mM, fold increase over control (1.00).
Where [4] appears, read: Table 2, L-M cells, sample concentration 0.2 mM, control 0.34.

Each structure is given as a SMILES string. Like-named read-outs stand apart in the source and are kept apart here.

As to `NCCc1ccc(O)c(O)c1` [Comparative compound, reference compound], the fold induction at 200 µM came out at 3.94. Also, the “NGF Concentration” value under setting [1] was found to be 1.30 ng/well.
Regarding `CCC(=O)NCCc1ccc(O)c(O)c1` [Compound 2], the fold induction at 200 µM under setting [2] is 9.39. Under setting [1], the “NGF Concentration” value was 3.10 ng/well.
Turning to `CC(=O)NCc1ccc(O)c(O)c1` [Compound 4], under setting [2], the fold induction at 200 µM worked out at 7.88. For the same molecule, under setting [1], the “NGF Concentration” value amounted to 2.60 ng/well.
On to `CCC(=O)NCc1ccc(O)c(O)c1` [Compound 5], for which the fold induction at 200 µM under setting [2] was 8.33. For the same molecule, the “NGF Concentration” value under setting [1] was found to be 2.75 ng/well.
On to `CCCC(=O)NCc1ccc(O)c(O)c1` [Compound 6], for which the fold induction at 200 µM under setting [2] is 8.94. Besides, the “NGF Concentration” value under setting [1] was 2.95 ng/well.
In the case of `CCC(=O)NCCCc1ccc(O)c(O)c1` [Compound 8], under setting [2], the fold induction at 200 µM worked out at 8.79. In addition, the “NGF Concentration” value under setting [1] is listed as 2.90 ng/well.
For `CCCC(=O)NCCCc1ccc(O)c(O)c1` [Compound 9], in that order: 8.33 and 2.75 ng/well.
As to `CCC(=O)N(C)CCc1ccc(O)c(O)c1` [Compound 11], the fold induction at 200 µM under setting [2] was 10.1. In addition, the “NGF Concentration” value under setting [1] is on record as 3.32 ng/well.
Turning to `CCC(=O)NCCc1ccc(OC(C)=O)c(OC(C)=O)c1` [Compound 14], the fold induction at 200 µM under setting [2] was 10.6. The “NGF Concentration” value under setting [1] is 3.49 ng/well.
As to `CC(=O)NCc1ccc(OC(C)=O)c(OC(C)=O)c1` [Compound 16], the fold induction at 200 µM under setting [2] came to 8.24. Also, under setting [1], the “NGF Concentration” value was 2.72 ng/well.
With `CC(=O)Oc1ccc(CCN(C)C(C)=O)cc1OC(C)=O` [Compound 18], the fold induction at 200 µM under setting [2] amounted to 12. Moreover, under setting [1], the “NGF Concentration” value came to 3.95 ng/well.
Take `CCCNCCc1ccc(O)c(O)c1` [Compound 20]: the fold induction at 200 µM was found to be 11. The “NGF Concentration” value under setting [1] is reported as 3.62 ng/well.
`CNCc1ccc(O)c(O)c1` [Compound 22]: the fold induction at 200 µM under setting [2] came out at 9. For the same molecule, the “NGF Concentration” value under setting [1] worked out at 2.97 ng/well.
Take `CCNCc1ccc(O)c(O)c1` [Compound 23]: under setting [2], the fold induction at 200 µM turned out to be 9.33. In addition, the “NGF Concentration” value under setting [1] was found to be 3.08 ng/well.
`CCCNCc1ccc(O)c(O)c1` [Compound 24]: the fold induction at 200 µM under setting [2] came out at 8.91. The “NGF Concentration” value under setting [1] came to 2.94 ng/well.
Consider `CCCCNCc1ccc(O)c(O)c1` [Compound 25], for which the fold induction at 200 µM under setting [2] amounted to 8.82. Moreover, the “NGF Concentration” value under setting [1] turned out to be 2.91 ng/well.
On to `CCNCCCc1ccc(O)c(O)c1` [Compound 27], for which the fold induction at 200 µM under setting [2] stood at 8.76. Besides, the “NGF Concentration” value under setting [1] worked out at 2.89 ng/well.
On to `CCCNCCCc1ccc(O)c(O)c1` [Compound 28], for which the fold induction at 200 µM under setting [2] was 8.45. Further, the “NGF Concentration” value under setting [1] is reported as 2.79 ng/well.
Take `CC(=O)Oc1ccc(CCN(C)C)cc1OC(C)=O` [Compound 30]: the fold induction at 200 µM amounted to 11.5. Under setting [1], the “NGF Concentration” value stood at 3.80 ng/well.
Consider `CCN(C)CCc1ccc(OC(C)=O)c(OC(C)=O)c1` [Compound 31], for which the fold induction at 200 µM amounted to 11.4. Under setting [1], the “NGF Concentration” value was found to be 3.76 ng/well.
Regarding `COC(=O)CCc1ccc(O)c(O)c1` [Compound 34], under setting [3], the fold induction at 200 µM worked out at 5.79. The “NGF Concentration” value under setting [4] was 1.97 ng/well.
Take `CCCOC(=O)CCc1ccc(O)c(O)c1` [Compound 36]: the fold induction at 200 µM under setting [3] is 5.53. Also, the “NGF Concentration” value under setting [4] came out at 1.88 ng/well.
For `COC(=O)Cc1ccc(O)c(O)c1` [Compound 38], in that order: 4.79 and 1.63 ng/well.
For `CCCOC(=O)Cc1ccc(O)c(O)c1` [Compound 40], under setting [3], the fold induction at 200 µM worked out at 5.41. For the same molecule, the “NGF Concentration” value under setting [4] was found to be 1.84 ng/well.
Regarding `CCCCOC(=O)Cc1ccc(O)c(O)c1` [Compound 41], the fold induction at 200 µM under setting [3] was 5.26. Besides, the “NGF Concentration” value under setting [4] amounted to 1.79 ng/well.
On to `COC(=O)CCCc1ccc(O)c(O)c1` [Compound 42], for which the fold induction at 200 µM under setting [3] was 5.32. The “NGF Concentration” value under setting [4] came out at 1.81 ng/well.
On to `CCCOC(=O)CCCc1ccc(O)c(O)c1` [Compound 44], for which the fold induction at 200 µM under setting [3] was determined as 5.62. Besides, the “NGF Concentration” value under setting [4] was found to be 1.91 ng/well.
For `CCCCOC(=O)CCCc1ccc(O)c(O)c1` [Compound 45], in that order: 5.41 and 1.84 ng/well.
For `COC(=O)CCc1ccc(OC(C)=O)c(OC(C)=O)c1` [Compound 46], in that order: 5.91 and 2.01 ng/well.
As for `CCCOC(=O)CCc1ccc(OC(C)=O)c(OC(C)=O)c1` [Compound 48], the fold induction at 200 µM under setting [3] was 6.26. The “NGF Concentration” value under setting [4] came to 2.13 ng/well.
`COC(=O)Cc1ccc(OC(C)=O)c(OC(C)=O)c1` [Compound 50]: the fold induction at 200 µM under setting [3] is 5.09. Further, under setting [4], the “NGF Concentration” value came to 1.73 ng/well.
As for `CCCOC(=O)Cc1ccc(OC(C)=O)c(OC(C)=O)c1` [Compound 52], the fold induction at 200 µM under setting [3] was found to be 5.53. Moreover, the “NGF Concentration” value under setting [4] is listed as 1.88 ng/well.
The corresponding values for `CCCCOC(=O)Cc1ccc(OC(C)=O)c(OC(C)=O)c1` [Compound 53] are 4.79 and 1.63 ng/well.
Regarding `COC(=O)CCCc1ccc(OC(C)=O)c(OC(C)=O)c1` [Compound 54], the fold induction at 200 µM under setting [3] amounted to 5.53. Further, the “NGF Concentration” value under setting [4] came out at 1.88 ng/well.
Regarding `CCCOC(=O)CCCc1ccc(OC(C)=O)c(OC(C)=O)c1` [Compound 56], the fold induction at 200 µM under setting [3] was found to be 5.09. Besides, the “NGF Concentration” value under setting [4] was determined as 1.73 ng/well.
With `CCCCOC(=O)CCCc1ccc(OC(C)=O)c(OC(C)=O)c1` [Compound 57], the fold induction at 200 µM under setting [3] stood at 5.32. Moreover, the “NGF Concentration” value under setting [4] amounted to 1.81 ng/well.
`CNC(=O)CCc1ccc(O)c(O)c1` [Compound 59, N-Methyl-3,4-dihydroxyphenylpropionamide]: the fold induction at 200 µM under setting [3] amounted to 5.62. For the same molecule, the “NGF Concentration” value under setting [4] was determined as 1.91 ng/well.
Turning to `CCCNC(=O)CCc1ccc(O)c(O)c1` [Compound 61], under setting [3], the fold induction at 200 µM is 5.91. In addition, under setting [4], the “NGF Concentration” value is 2.01 ng/well.
The corresponding values for `NC(=O)Cc1ccc(O)c(O)c1` [Compound 62] are 4.79 and 1.63 ng/well.
For `CNC(=O)Cc1ccc(O)c(O)c1` [Compound 63], the fold induction at 200 µM under setting [3] stood at 5.82. In addition, under setting [4], the “NGF Concentration” value was 1.98 ng/well.
In the case of `CCCNC(=O)Cc1ccc(O)c(O)c1` [Compound 65], under setting [3], the fold induction at 200 µM came to 5.21. Also, the “NGF Concentration” value under setting [4] stood at 1.77 ng/well.
As to `CCCCNC(=O)Cc1ccc(O)c(O)c1` [Compound 66], the fold induction at 200 µM under setting [3] is 5.85. Also, the “NGF Concentration” value under setting [4] was 1.99 ng/well.
On to `NC(=O)CCCc1ccc(O)c(O)c1` [Compound 67], for which the fold induction at 200 µM under setting [3] came to 4.97. Besides, the “NGF Concentration” value under setting [4] amounted to 1.69 ng/well.
For `CNC(=O)CCCc1ccc(O)c(O)c1` [Compound 68], in that order: 5.09 and 1.73 ng/well.
The corresponding values for `CCCNC(=O)CCCc1ccc(O)c(O)c1` [Compound 70] are 5.38 and 1.83 ng/well.
On to `CCCCNC(=O)CCCc1ccc(O)c(O)c1` [Compound 71], for which, under setting [3], the fold induction at 200 µM was found to be 5.71. The “NGF Concentration” value under setting [4] stood at 1.83 ng/well.
On to `CC(=O)Oc1ccc(CC(N)=O)cc1OC(C)=O` [Compound 75], for which the fold induction at 200 µM under setting [3] was 5.53. Further, the “NGF Concentration” value under setting [4] is 2.03 ng/well.
Consider `CCCCNC(=O)Cc1ccc(OC(C)=O)c(OC(C)=O)c1` [Compound 77], for which, under setting [3], the fold induction at 200 µM came out at 5.26. The “NGF Concentration” value under setting [4] is recorded as 1.86 ng/well.
The corresponding values for `CC(=O)Oc1ccc(CCCC(N)=O)cc1OC(C)=O` [Compound 78] are 4.94 and 1.79 ng/well.
Consider `CCCCNC(=O)CCCc1ccc(OC(C)=O)c(OC(C)=O)c1` [Compound 80], for which, under setting [3], the fold induction at 200 µM is 5.74. The “NGF Concentration” value under setting [4] is on record as 1.95 ng/well.

Source of the values: patent US5232923A, “Catechol derivatives and pharmaceutical preparations containing same” (Mitsui Toatsu Chemicals, Incorporated, priority 1988, dated 1993).
